27 molecules from patent US20210078988A1, “MODULATORS OF INDOLEAMINE 2,3-DIOXYGENASE” (GLAXOSMITHKLINE INTELLECTUAL PROPERTY DEVELOPMENT LIMITED, priority 2017, published 2021) can be followed below.

This experiment deals with T1, indoleamine 2, 3-dioxygenase (IDO1) (Homo sapiens, UniProt P14902).
T1 construct: human peripheral blood mononuclear cells (PBMC) (PB003F; host or cells: human PBMC stimulated with IFN-gamma and LPS
T1 sequence (P14902 whole entry): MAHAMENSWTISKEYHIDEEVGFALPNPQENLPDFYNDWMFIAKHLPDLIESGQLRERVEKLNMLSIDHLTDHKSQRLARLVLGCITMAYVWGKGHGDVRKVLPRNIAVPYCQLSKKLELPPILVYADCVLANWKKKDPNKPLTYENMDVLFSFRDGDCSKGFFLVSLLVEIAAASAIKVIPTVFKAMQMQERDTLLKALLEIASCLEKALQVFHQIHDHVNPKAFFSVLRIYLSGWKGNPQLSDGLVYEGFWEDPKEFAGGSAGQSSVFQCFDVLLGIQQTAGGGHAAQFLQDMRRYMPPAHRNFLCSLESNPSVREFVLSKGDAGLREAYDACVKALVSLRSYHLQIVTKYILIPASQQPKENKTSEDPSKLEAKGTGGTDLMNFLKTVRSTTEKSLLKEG
Put plainly: PBMC IDO1 assay (kynurenine detection via mass spectrometry). The format is cell-based. The conditions noted are these: human PBMC stimulated with IFN-γ and LPS, 2 days, kynurenine by mass spectrometry; read-out: IDO1 PBMC pIC50 (converted). In outline: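 Kynurenine output, read by RapidFire mass spectrometry as a ratio to internal standard, reflected IDO1 activity in human PBMCs induced with 100 ng/ml IFN-γ plus 50 ng/ml LPS and dosed with compound (11 points, 3-fold) over 2 days. Cytotoxicity was tracked by CellTiter-Glo; XC50 values came from Hill-slope fits.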
With `Cc1ccc(C(=O)NC(CC2CCN(C(=O)OC(C)(C)C)CC2)c2ccccc2)cc1F` (stereo not drawn) [Example 139, tert-butyl 4-(2-(3-fluoro-4-methylbenzamido)-2-phenylethyl)piperidine-1-carboxylate], the IC50 is 63.1 nM.
The figure for `CN(Cc1ccccc1)c1nnc(C(CC2CCN(C(=O)OC(C)(C)C)CC2)NC(=O)c2ccc(Cl)s2)o1` (stereo not drawn) [Example 140, tert-butyl 4-(2-(5-(benzyl(methyl)amino)-1,3,4-oxadiazol-2-yl)-2-(5-chlorothiophene-2-carboxamido)ethyl)piperidine-1-carboxylate] is 63.1 nM; for `CC(C)(C)OC(=O)N1CCC(CC(NC(=O)c2ccc(C#N)cc2)c2ccccc2)CC1` (stereo not drawn) [Example 141, tert-butyl 4-(2-(4-cyanobenzamido)-2-phenylethyl)piperidine-1-carboxylate] it is 63.1 nM; for `CC(C)(C)OC(=O)N1CCC(CC(CNCc2ccccc2)NC(=O)c2ccc(F)cc2)CC1` (stereo not drawn) [Example 142, tert-butyl 4-(3-(benzylamino)-2-(4-fluorobenzamido)propyl)piperidine-1-carboxylate] it is 63.1 nM.
Regarding `COc1ccc(C(=O)NC(CC2CCN(C(=O)OC(C)(C)C)CC2)c2ccccc2)cc1` (stereo not drawn) [Example 143, tert-butyl 4-(2-(4-methoxybenzamido)-2-phenylethyl)piperidine-1-carboxylate], the IC50 was 79.4 nM.
The figure for `CC(C)Oc1ccc(C(CC2CCN(C(=O)OC(C)(C)C)CC2)NC(=O)c2ccc(F)cc2)cn1` (stereo not drawn) [Example 144, tert-butyl 4-(2-(4-fluorobenzamido)-2-(6-isopropoxypyridin-3-yl)ethyl)piperidine-1-carboxylate] is 79.4 nM; for `COC(=O)N1CCC(CC(NC(=O)c2ccc(F)cc2)c2ccc(OC)nc2)CC1` (stereo not drawn) [Example 145, methyl 4-(2-(4-fluorobenzamido)-2-(6-methoxypyridin-3-yl)ethyl)piperidine-1-carboxylate] it is 79.4 nM; for `CC(C)(C)OC(=O)N1CCC(CC(NC(=O)c2cccc(F)c2)c2ccccc2)CC1` (stereo not drawn) [Example 146, tert-butyl 4-(2-(3-fluorobenzamido)-2-phenylethyl)piperidine-1-carboxylate] it is 79.4 nM.
For the molecule `CC(C)(C)OC(=O)N1CCC(CC(NC(=O)c2ccc(F)c(F)c2)c2ccccc2)CC1` (stereo not drawn) [Example 147, tert-butyl 4-(2-(3,4-difluorobenzamido)-2-phenylethyl)piperidine-1-carboxylate], the IC50 is 79.4 nM.
As for `CC(C)(C)OC(=O)N1CCC(C[C@H](Nc2nc3ccc(Cl)cc3o2)C2CC2)CC1` [Example 148, (S)-tert-butyl 4-(2-((6-chlorobenzo[d]oxazol-2-yl)amino)-2-cyclopropylethyl)piperidine-1-carboxylate], the IC50 is 79.4 nM.
On to `CC#CCOc1ccc(C(=O)NC(CC2CCN(C(=O)OC(C)(C)C)CC2)c2ccccc2)cc1` (stereo not drawn) [Example 149, tert-butyl 4-(2-(4-(but-2-yn-1-yloxy)benzamido)-2-phenylethyl)piperidine-1-carboxylate], for which the IC50 is 79.4 nM.
`O=C(NC(CC1CCN(C(=O)OC2CCCCC2)CC1)c1ccccc1)c1ccc(Cl)cc1` (stereo not drawn) [Example 150, cyclohexyl 4-(2-(4-chlorobenzamido)-2-phenylethyl)piperidine-1-carboxylate]: the IC50 was 79.4 nM.
The figure for `CC(C)(C)OC(=O)N1CCC(CC(NC(=O)c2ccc(Cl)cc2)C2CCCC2)CC1` (stereo not drawn) [Example 151, tert-butyl 4-(2-(4-chlorobenzamido)-2-cyclopentylethyl)piperidine-1-carboxylate] is 79.4 nM; for `CC(C)(C)OC(=O)N1CCC(CC(NC(=O)c2ccc(F)cc2)C2CCCCC2)CC1` (stereo not drawn) [Example 152, tert-butyl 4-(2-cyclohexyl-2-(4-fluorobenzamido)ethyl)piperidine-1-carboxylate] it is 79.4 nM.
The figure for `Cc1cc(C(=O)NC(CC2CCN(C(=O)OC(C)(C)C)CC2)c2ccccc2)cs1` (stereo not drawn) [Example 153, tert-butyl 4-(2-(5-methylthiophene-3-carboxamido)-2-phenylethyl)piperidine-1-carboxylate] is 79.4 nM; for `CCCC(=O)N1CCC(CC(NC(=O)c2ccc(Cl)cc2)c2ccccc2)CC1` (stereo not drawn) [Example 154, N-(2-(1-butyrylpiperidin-4-yl)-1-phenylethyl)-4-chlorobenzamide] it is 79.4 nM.
The figure for `C=CC[C@@H](CC1CCN(C(=O)OC(C)(C)C)CC1)NC(=O)c1ccc(Cl)s1` [Example 155, (S)-tert-butyl 4-(2-(5-chlorothiophene-2-carboxamido)pent-4-en-1-yl)piperidine-1-carboxylate] is 79.4 nM.
Turning to `Cc1ccc(C(=O)NC(CC2CCN(C(=O)c3ccccc3)CC2)c2ccccc2)s1` (stereo not drawn) [Example 156, N-(2-(1-benzoylpiperidin-4-yl)-1-phenylethyl)-5-methylthiophene-2-carboxamide], the IC50 was 79.4 nM.
As to `COc1ccc(C(=O)NC(CC2CCN(C(=O)OC(C)(C)C)CC2)c2ccccc2)cn1` (stereo not drawn) [Example 157, tert-butyl 4-(2-(6-methoxynicotinamido)-2-phenylethyl)piperidine-1-carboxylate], the IC50 was 100 nM.
For `CCOC(=O)N1CCC(CC(NC(=O)c2ccc(OC)nc2)C2CC2)CC1` (stereo not drawn) [Example 158, ethyl 4-(2-cyclopropyl-2-(6-methoxynicotinamido)ethyl)piperidine-1-carboxylate], the IC50 is 100 nM.
For the molecule `CC(C)(C)OC(=O)N1CCC(CC(NC(=O)c2ccsc2)c2ccccc2)CC1` (stereo not drawn) [Example 159, tert-butyl 4-(2-phenyl-2-(thiophene-3-carboxamido)ethyl)piperidine-1-carboxylate], the IC50 was 100 nM.
In the case of `CC(C)(C)OC(=O)N1CCC(CC(NC(=O)c2ccc(F)cc2)c2ccc(OCc3ccccc3)nc2)CC1` (stereo not drawn) [Example 160, tert-butyl 4-(2-(6-(benzyloxy)pyridin-3-yl)-2-(4-fluorobenzamido)ethyl)piperidine-1-carboxylate], the IC50 was 100 nM.
For the molecule `COc1cc(C(=O)NC(CC2CCN(C(=O)OC(C)(C)C)CC2)c2ccccc2)ccc1Cl` (stereo not drawn) [Example 161, tert-butyl 4-(2-(4-chloro-3-methoxybenzamido)-2-phenylethyl)piperidine-1-carboxylate], the IC50 was 100 nM.
Take `CC(C)(C)OC(=O)N1CCC(CC(NC(=O)c2ccc(C#N)c(F)c2)c2ccccc2)CC1` (stereo not drawn) [Example 162, tert-butyl 4-(2-(4-cyano-3-fluorobenzamido)-2-phenylethyl)piperidine-1-carboxylate]: the IC50 is 100 nM.
As to `CC(C)CC(=O)N1CCC(CC(NC(=O)c2ccc(Cl)cc2)c2ccccc2)CC1` (stereo not drawn) [Example 163, 4-chloro-N-(2-(1-(3-methylbutanoyl)piperidin-4-yl)-1-phenylethyl)benzamide], the IC50 is 100 nM.
The figure for `CC(C)(C)CC(=O)N1CCC(CC(NC(=O)c2ccc(Cl)cc2)c2ccccc2)CC1` (stereo not drawn) [Example 164, 4-chloro-N-(2-(1-(3,3-dimethylbutanoyl)piperidin-4-yl)-1-phenylethyl)benzamide] is 100 nM; for `CC(C)(C)NC(=O)N1CCC(CC(NC(=O)c2ccc(Cl)cc2)c2ccccc2)CC1` (stereo not drawn) [Example 165, N-(tert-butyl)-4-(2-(4-chlorobenzamido)-2-phenylethyl)piperidine-1-carboxamide] it is 100 nM.
